Data published in US3948899A, “α-Cyanobenzylpiperazines and a process for producing the same” (Fuji Chemical Industry Co., Ltd., priority 1973, dated 1976).
Counter-ions that a name gives are not always drawn.

Assays:
[1] = tested on: mongrel adult dogs; experiment: Effects on coronary sinus oxygen tension (thoractomized anesthetized dogs, i.v.); format: in vivo, dog
Procedure: (§1) All experiments were conducted on male and female thoractomized mongrel adult dogs weighing about 10 Kg under anesthesia with pentobarbital sodium.
(§2) Arterial blood pressure was measured by pressure transducer (Nippon Koden MPU-0.5) connected with the cannula inserted from exposed carotid artery into aorta. Aortic blood flow was determined by means of electromagnetic flow meter (Nippon Koden MF-5) mounted at an origin of aorta. Coronary sinus out flow and coronary sinus oxygen tension were assessed by means of electromagnetic flow meter (Nippon Koden MF-5) and Po2 Macro electrode (Beckmann Moder 160-C), respectively, using Morawitz cannulization technique. Heart rate was measured by cardiotachometer (Nippon Koden RT-2) synchronized with systolic blood pressure of aorta.

[2] = tested on: mongrel adult dogs; experiment: Effects on heart rate (thoractomized anesthetized dogs, i.v.); format: in vivo, dog
Procedure: as §1, §2

[3] = tested on: mongrel adult dogs; experiment: Effects on the work done by the left ventricle (thoractomized anesthetized dogs, i.v.); format: in vivo, dog
Procedure: as §1, §2
The work done by the left ventricle is calculated according to the following equation: […]

[4] = Acute toxicity (LD50; per os, mice); format: in vivo; conditions: mouse, in vivo, po, dd-0train male mice
Procedure: 7. Acute Toxicity (See Table 7) Acute toxicity (LD50; per os, mice) was measured in dd-0train male mice.

[5] = prior art; cited from earlier work

## COc1ccc(CN2CCNCC2)c(OC)c1OC [Vastarel F, 2,3,4 -trimethoxybenzylpiperazine dihydrochloride]
[1]; i.v. 0.2 mg/Kg, 5 min
  Changes(%) of basal values, coronary sinus oxygen tension: 0%
[1]; i.v. 0.2 mg/Kg, 10 min
  Changes(%) of basal values, coronary sinus oxygen tension: 0%
[1]; i.v. 0.2 mg/Kg, 15 min
  Changes(%) of basal values, coronary sinus oxygen tension: 0%
[1]; i.v. 0.2 mg/Kg, 20 min
  Changes(%) of basal values, coronary sinus oxygen tension: 0%
[1]; i.v. 0.2 mg/Kg, 25 min
  Changes(%) of basal values, coronary sinus oxygen tension: 0%
[1]; i.v. 0.2 mg/Kg, 30 min
  Changes(%) of basal values, coronary sinus oxygen tension: 0%
[1]; i.v. 0.2 mg/Kg, imm.
  Changes(%) of basal values, coronary sinus oxygen tension: +3.0%
[1]; i.v. 0.6 mg/Kg, 1 min
  Changes(%) of basal values, coronary sinus oxygen tension: +5.5%
[1]; i.v. 0.6 mg/Kg, 5 min
  Changes(%) of basal values, coronary sinus oxygen tension: +1.0%
[1]; i.v. 0.6 mg/Kg, 10 min
  Changes(%) of basal values, coronary sinus oxygen tension: 0%
[1]; i.v. 0.6 mg/Kg, 15 min
  Changes(%) of basal values, coronary sinus oxygen tension: 0%
[1]; i.v. 0.6 mg/Kg, 20 min
  Changes(%) of basal values, coronary sinus oxygen tension: 0%
[1]; i.v. 0.6 mg/Kg, 25 min
  Changes(%) of basal values, coronary sinus oxygen tension: 0%
[1]; i.v. 0.6 mg/Kg, 30 min
  Changes(%) of basal values, coronary sinus oxygen tension: 0%
[1]; i.v. 0.6 mg/Kg, imm.
  Changes(%) of basal values, coronary sinus oxygen tension: +9.0%
[1]; i.v. 2.0 mg/Kg, 1 min
  Changes(%) of basal values, coronary sinus oxygen tension: +1.5%
[1]; i.v. 2.0 mg/Kg, 5 min
  Changes(%) of basal values, coronary sinus oxygen tension: +2.0%
[1]; i.v. 2.0 mg/Kg, 10 min
  Changes(%) of basal values, coronary sinus oxygen tension: +5.0%
[1]; i.v. 2.0 mg/Kg, 15 min
  Changes(%) of basal values, coronary sinus oxygen tension: +5.0%
[1]; i.v. 2.0 mg/Kg, 20 min
  Changes(%) of basal values, coronary sinus oxygen tension: +3.0%
[1]; i.v. 2.0 mg/Kg, 25 min
  Changes(%) of basal values, coronary sinus oxygen tension: +0.5%
[1]; i.v. 2.0 mg/Kg, 30 min
  Changes(%) of basal values, coronary sinus oxygen tension: 0%
[1]; i.v. 2.0 mg/Kg, imm.
  Changes(%) of basal values, coronary sinus oxygen tension: +3.0%
[1]; i.v., between 5 and 20 minutes
  Increase in oxygen tension: up to 5%
[2]; i.v. 0.2 mg/Kg, 1 min
  Changes(%) of basal values, heart rate: 0%
[2]; i.v. 0.2 mg/Kg, 5 min
  Changes(%) of basal values, heart rate: -1.5%
[2]; i.v. 0.2 mg/Kg, 10 min
  Changes(%) of basal values, heart rate: -1.0%
[2]; i.v. 0.2 mg/Kg, 15 min
  Changes(%) of basal values, heart rate: 0%
[2]; i.v. 0.2 mg/Kg, 20 min
  Changes(%) of basal values, heart rate: 0%
[2]; i.v. 0.2 mg/Kg, 25 min
  Changes(%) of basal values, heart rate: 0%
[2]; i.v. 0.2 mg/Kg, 30 min
  Changes(%) of basal values, heart rate: 0%
[2]; i.v. 0.2 mg/Kg, imm.
  Changes(%) of basal values, heart rate: +1.5%
[2]; i.v. 0.6 mg/Kg, 1 min
  Changes(%) of basal values, heart rate: +0.5%
[2]; i.v. 0.6 mg/Kg, 5 min
  Changes(%) of basal values, heart rate: +0.5%
[2]; i.v. 0.6 mg/Kg, 10 min
  Changes(%) of basal values, heart rate: 0%
[2]; i.v. 0.6 mg/Kg, 15 min
  Changes(%) of basal values, heart rate: -1.0%
[2]; i.v. 0.6 mg/Kg, 20 min
  Changes(%) of basal values, heart rate: -1.0%
[2]; i.v. 0.6 mg/Kg, 25 min
  Changes(%) of basal values, heart rate: -1.0%
[2]; i.v. 0.6 mg/Kg, 30 min
  Changes(%) of basal values, heart rate: 0%
[2]; i.v. 0.6 mg/Kg, imm.
  Changes(%) of basal values, heart rate: +1.5%
[2]; i.v. 2.0 mg/Kg, 1 min
  Changes(%) of basal values, heart rate: -2.0%
[2]; i.v. 2.0 mg/Kg, 5 min
  Changes(%) of basal values, heart rate: -2.0%
[2]; i.v. 2.0 mg/Kg, 10 min
  Changes(%) of basal values, heart rate: -1.5%
[2]; i.v. 2.0 mg/Kg, 15 min
  Changes(%) of basal values, heart rate: -1.0%
[2]; i.v. 2.0 mg/Kg, 20 min
  Changes(%) of basal values, heart rate: -1.5%
[2]; i.v. 2.0 mg/Kg, 25 min
  Changes(%) of basal values, heart rate: -1.0%
[2]; i.v. 2.0 mg/Kg, 30 min
  Changes(%) of basal values, heart rate: -1.5%
[2]; i.v. 2.0 mg/Kg, imm.
  Changes(%) of basal values, heart rate: +5.5%
[3]; i.v. 0.2 mg/Kg, 1 min
  Changes(%) of basal values, work of left ventricle: -1.0%
[3]; i.v. 0.2 mg/Kg, 5 min
  Changes(%) of basal values, work of left ventricle: -2.5%
[3]; i.v. 0.2 mg/Kg, 10 min
  Changes(%) of basal values, work of left ventricle: -1.5%
[3]; i.v. 0.2 mg/Kg, 15 min
  Changes(%) of basal values, work of left ventricle: -1.0%
[3]; i.v. 0.2 mg/Kg, 20 min
  Changes(%) of basal values, work of left ventricle: 0%
[3]; i.v. 0.2 mg/Kg, 25 min
  Changes(%) of basal values, work of left ventricle: 0%
[3]; i.v. 0.2 mg/Kg, 30 min
  Changes(%) of basal values, work of left ventricle: 0%
[3]; i.v. 0.2 mg/Kg, imm.
  Changes(%) of basal values, work of left ventricle: -2.5%
[3]; i.v. 0.6 mg/Kg, 1 min
  Changes(%) of basal values, work of left ventricle: -2.0%
[3]; i.v. 0.6 mg/Kg, 5 min
  Changes(%) of basal values, work of left ventricle: -1.5%
[3]; i.v. 0.6 mg/Kg, 10 min
  Changes(%) of basal values, work of left ventricle: -2.0%
[3]; i.v. 0.6 mg/Kg, 15 min
  Changes(%) of basal values, work of left ventricle: -2.0%
[3]; i.v. 0.6 mg/Kg, 20 min
  Changes(%) of basal values, work of left ventricle: -1.0%
[3]; i.v. 0.6 mg/Kg, 25 min
  Changes(%) of basal values, work of left ventricle: -1.5%
[3]; i.v. 0.6 mg/Kg, 30 min
  Changes(%) of basal values, work of left ventricle: 0%
[3]; i.v. 0.6 mg/Kg, imm.
  Changes(%) of basal values, work of left ventricle: -4.5%
[3]; i.v. 2.0 mg/Kg, 1 min
  Changes(%) of basal values, work of left ventricle: -35.0%
[3]; i.v. 2.0 mg/Kg, 5 min
  Changes(%) of basal values, work of left ventricle: +9.0%
[3]; i.v. 2.0 mg/Kg, 10 min
  Changes(%) of basal values, work of left ventricle: +21.5%
[3]; i.v. 2.0 mg/Kg, 15 min
  Changes(%) of basal values, work of left ventricle: +10.0%
[3]; i.v. 2.0 mg/Kg, 20 min
  Changes(%) of basal values, work of left ventricle: +4.0%
[3]; i.v. 2.0 mg/Kg, 25 min
  Changes(%) of basal values, work of left ventricle: +3.5%
[3]; i.v. 2.0 mg/Kg, 30 min
  Changes(%) of basal values, work of left ventricle: +3.0%
[3]; i.v. 2.0 mg/Kg, imm.
  Changes(%) of basal values, work of left ventricle: -90.0%
[4]
  LD50: 960 mg/kg
[5]
  Effect on the heart, disadvantage (in words): depressant effect on the heart
